{
  "source": "patent US11472808B2",
  "about": "“Substituted pyrrolo[1,2-c]pyrimidines as hepatitis B antiviral agents” (Enanta Pharmaceuticals, Inc., priority 2019, dated 2022)",
  "data": [
    {"system": "HBV", "assay": "HepAD38 anti-HBV assay: reduction of viral product accumulation (virion DNA qPCR, HBsAg/HBeAg ELISA)", "assay_type": "cell-based", "conditions": "Hepatitis B virus, 120 h; HepAD38 cells; concentration reducing viral product accumulation by 50% relative to no drug controls; harvest five days after compound addition; read-out: HepAD38 EC50", "experimental": "Methods: HepAD38 cells are maintained as previously reported (Ladner et al, Antimicrob. Agents Chemother. 1997, […], 1715). Briefly, cells are passaged upon attaining confluency in DMEM/F12 media in the presence of 10% FBS, Penn/Strep, 250 μg/mL G418, and 1 μg/ml tetracycline. Novel compounds are screened by first washing cells three times with PBS to remove tetracycline, and plating in 96 well plates at 35,000 cells/well. Compounds dissolved in DMSO are then diluted 1:200 into wells containing cells. Five days after compound addition, material is harvested for analysis. For an extended 8 day analysis, cells are plated and treated as described above, but media and compound are refreshed on d2 and d5 post initial treatment.\nOn harvest day, virion DNA is obtained by lysing with Sidestep Lysis and Stabilization Buffer and then quantified via quantitative real time PCR. Commercially available ELISA kits are used to quantitate the viral proteins HBsAg (Alpco) or HbeAg (US Biological) by following the manufacturer's recommended protocol after diluting samples to match the linear range of their respective assays. Irrespective of readout, compound concentrations that reduce viral product accumulation in the cell lysates or supernatants by 50% relative to no drug controls (EC50) are reported; EC50 ranges are as follows: A<0.1 μM; B 0.1-0.4 μM; C>0.4 μM.", "units": {"EC50": "nM"}, "values": [
      {"smiles": "ONC[C@]1(O)CC2=C(c3ccn(C(F)F)n3)[C@H](c3ccc(F)cc3Cl)N=C(c3nccs3)N2C1", "note": "[Example 123]", "EC50": "> 400"},
      {"smiles": "O[C@@]1(CCl)CC2=C(c3ccn(C(F)F)n3)[C@H](c3ccc(F)cc3Cl)N=C(c3nccs3)N2C1", "note": "[Example 124]", "EC50": "< 100"},
      {"smiles": "O[C@]1(CCl)CC2=C(c3ccn(C(F)F)n3)[C@H](c3ccc(F)cc3Cl)N=C(c3nccs3)N2C1", "note": "[Example 125]", "EC50": "< 100"},
      {"smiles": "CONC[C@@]1(O)CC2=C(c3ccn(C(F)F)n3)[C@H](c3ccc(F)cc3Cl)N=C(c3nccs3)N2C1", "note": "[Example 126]", "EC50": "> 400"},
      {"smiles": "CONC[C@]1(O)CC2=C(c3ccn(C(F)F)n3)[C@H](c3ccc(F)cc3Cl)N=C(c3nccs3)N2C1", "note": "[Example 127]", "EC50": "> 400"},
      {"smiles": "C=CCN(C[C@@]1(O)CC2=C(c3ccn(C(F)F)n3)[C@H](c3ccc(F)cc3Cl)N=C(c3nccs3)N2C1)S(C)(=O)=O", "note": "[Example 128]", "EC50": "> 400"},
      {"smiles": "C=CCN(C[C@]1(O)CC2=C(c3ccn(C(F)F)n3)[C@H](c3ccc(F)cc3Cl)N=C(c3nccs3)N2C1)S(C)(=O)=O", "note": "[Example 129]", "EC50": "> 400"},
      {"smiles": "COC(=O)c1cccc(S(=O)(=O)NC[C@]2(O)CC3=C(c4ccn(C(F)F)n4)[C@H](c4ccc(F)cc4Cl)N=C(c4nccs4)N3C2)c1", "note": "[Example 130]", "EC50": "100 to 400"},
      {"smiles": "COC(=O)c1cccc(S(=O)(=O)NC[C@@]2(O)CC3=C(c4ccn(C(F)F)n4)[C@H](c4ccc(F)cc4Cl)N=C(c4nccs4)N3C2)c1", "note": "[Example 131]", "EC50": "100 to 400"},
      {"smiles": "O=C(O)c1cccc(S(=O)(=O)NC[C@]2(O)CC3=C(c4ccn(C(F)F)n4)[C@H](c4ccc(F)cc4Cl)N=C(c4nccs4)N3C2)c1", "note": "[Example 132]", "EC50": "> 400"},
      {"smiles": "O=C(O)c1cccc(S(=O)(=O)NC[C@@]2(O)CC3=C(c4ccn(C(F)F)n4)[C@H](c4ccc(F)cc4Cl)N=C(c4nccs4)N3C2)c1", "note": "[Example 133]", "EC50": "> 400"},
      {"smiles": "CS(=O)(=O)[C@H]1CC2=C(c3ccn(C(F)F)n3)[C@H](c3ccc(F)cc3Cl)N=C(c3nccs3)N2C1", "note": "[Example 134]", "EC50": "100 to 400"},
      {"smiles": "N#CCCCS(=O)(=O)N([C@H]1CC2=C(c3ccn(C(F)F)n3)[C@H](c3ccc(F)cc3Cl)N=C(c3nccs3)N2C1)S(=O)(=O)CCCC#N", "note": "[Example 136]", "EC50": "100 to 400"},
      {"smiles": "O=S(=O)(CCCc1nnn[nH]1)N[C@H]1CC2=C(c3ccn(C(F)F)n3)[C@H](c3ccc(F)cc3Cl)N=C(c3nccs3)N2C1", "note": "[Example 137]", "EC50": "> 400"},
      {"smiles": "O[C@]1(CN2CCOCC2)CC2=C(c3ccn(C(F)F)n3)[C@H](c3ccc(F)cc3Cl)N=C(c3nccs3)N2C1", "note": "[Example 138]", "EC50": "> 400"},
      {"smiles": "O[C@@]1(CN2CCOCC2)CC2=C(c3ccn(C(F)F)n3)[C@H](c3ccc(F)cc3Cl)N=C(c3nccs3)N2C1", "note": "[Example 139]", "EC50": "100 to 400"},
      {"smiles": "OC1(Cc2nnn[nH]2)CC2=C(c3ccn(C(F)F)n3)[C@H](c3ccc(F)cc3Cl)N=C(c3nccs3)N2C1", "note": "(stereo partly shown) [Example 141]", "EC50": "> 400"},
      {"smiles": "CSC[C@@]1(O)CC2=C(c3ccn(C(F)F)n3)[C@H](c3ccc(F)cc3Cl)N=C(c3nccs3)N2C1", "note": "[Example 142]", "EC50": "> 400"},
      {"smiles": "CSC[C@]1(O)CC2=C(c3ccn(C(F)F)n3)[C@H](c3ccc(F)cc3Cl)N=C(c3nccs3)N2C1", "note": "[Example 143]", "EC50": "100 to 400"},
      {"smiles": "CS(=O)(=O)C[C@@]1(O)CC2=C(c3ccn(C(F)F)n3)[C@H](c3ccc(F)cc3Cl)N=C(c3nccs3)N2C1", "note": "[Example 144]", "EC50": "100 to 400"},
      {"smiles": "CS(=O)(=O)C[C@]1(O)CC2=C(c3ccn(C(F)F)n3)[C@H](c3ccc(F)cc3Cl)N=C(c3nccs3)N2C1", "note": "[Example 145]", "EC50": "> 400"},
      {"smiles": "CS(=O)(=O)NC[C@]1(N)CC2=C(c3ccn(C(F)F)n3)[C@H](c3ccc(F)cc3Cl)N=C(c3nccs3)N2C1", "note": "[Example 146]", "EC50": "> 400"},
      {"smiles": "C=CCNC[C@]1(N)CC2=C(c3ccn(C(F)F)n3)[C@H](c3ccc(F)cc3Cl)N=C(c3nccs3)N2C1", "note": "[Example 147]", "EC50": "> 400"},
      {"smiles": "CS(=O)(=O)NC[C@@]1(N)CC2=C(c3ccn(C(F)F)n3)[C@H](c3ccc(F)cc3Cl)N=C(c3nccs3)N2C1", "note": "[Example 148]", "EC50": "> 400"},
      {"smiles": "C=CCNC[C@@]1(N)CC2=C(c3ccn(C(F)F)n3)[C@H](c3ccc(F)cc3Cl)N=C(c3nccs3)N2C1", "note": "[Example 149]", "EC50": "> 400"}
    ]}
  ]
}
